Results published in patent US5101054A, “Novel fluorine-containing platinum complex” (priority 1989, dated 1992).
Where two headings read alike, the source gives them in different places.

Tests used:
L1210 cells = test: Experiment 2 growth inhibition of L1210 cells; assay type: cell-based, mouse; details: text calls it IC50
Procedure: The drug sensitivity (a) was determined according to the following equation. [formula]

[1] = Experiment 3 blood urea nitrogen (BUN) and body weight in ICR mice; details: for Difference of weights: average weight 12th day vs 1st day; for BUN value: blood on 12th day, control 27.2 ± 1.9
Procedure: (§1) Test compounds were administered to ICR mice (aged: 8 weeks) on the 1st day, the 5th day and the 9th day. The blood was collected therefrom on the 12th day, and the concentrations of blood urea nitrogen (BUN) were determined.
(§2) *Control group: druguntreated normal mouse

[2] = test system: Mouse leukemia cells L1210; test: Experiment 1 anti-tumor activity test in L1210 implanted CDF1 mice; assay type: in vivo; details: for T/C: L1210 i.p. implanted CDF1 mice; for Number of survived mice (on 30th day): survivors/total on 30th day
Procedure: Mouse leukemia cells L1210 (1×10^5) were implanted intraperitoneally to CDF1 mice (female, aged: 8 weeks) on the 0 day of implantation. CDDP and CBDCA were used as a reference. The anti-tumor activity of the platinum complexes in L1210 implanted mice were expressed by the T/C value, which was determined according to the following equation, and by the number of mice which survived until the 30th day of implantation. [formula]

[3] = test system: cisplatin resistant mouse leukemia cells L1210 (L1210/CDDP); test: Experiment 2 growth inhibition of cisplatin resistant L1210/CDDP cells; assay type: cell-based
[4] = mouse, in vivo
Procedure: as §1, §2

In the case of `N.N.O=C([O-])C1(C(=O)[O-])CCC1.[Pt+2]` [CBDCA, cisdiamino-1,1-cyclobutanedicarboxylato platinum (II)], the IC50 (L1210 cells) is reported as 0.25 µg/mL, the Difference of weights ([1]; dose 100 mg/kg on days 1, 5, 9) is reported as -3.0 g and the BUN value ([1]; dose 100 mg/kg on days 1, 5, 9) is reported as 21.0 ± 4.0 mg/dL. For the same compound, the T/C ([2]; dose 12.5 mg/kg) was 139%, the “Number of survived mice (on 30th day)” value ([2]; dose 12.5 mg/kg) was 0/6 and the T/C ([2]; dose 25 mg/kg) was 199%. For the same compound, the “Number of survived mice (on 30th day)” value ([2]; dose 25 mg/kg) was 0/6, the T/C ([2]; dose 50 mg/kg) was 340% and the “Number of survived mice (on 30th day)” value ([2]; dose 50 mg/kg) was 2/6. For the same compound, the T/C ([2]; dose 100 mg/kg) was 366%, the “Number of survived mice (on 30th day)” value ([2]; dose 100 mg/kg) was 2/6 and the “IC50 L1210/CDDP” value [3] was 1.82 µg/mL.

In the case of `CC(CN)(CN)C(F)(F)F.O=C([O-])C1(C(=O)[O-])CCC1.[Pt+2]` [Compound of Ex. 2, cis-(2-methyl-2-trifluoromethyl-1,3-propanediamine)-1,1-cyclobutanedicarboxylato platinum (II)], the T/C ([2]; dose 50 mg/kg) is reported as 192%, the “Number of survived mice (on 30th day)” value ([2]; dose 50 mg/kg) is reported as 0/6 and the T/C ([2]; dose 100 mg/kg) is reported as 267%. For the same compound, the “Number of survived mice (on 30th day)” value ([2]; dose 100 mg/kg) was 0/6.

For “cis-dichloro-(2-methyl-2-trifluoromethyl-1,3-propanediamine)platinum (II) [Compound of Ex. 1]”, the BUN value ([4]; 25 mg/kg) was 23.3 mg/dL, the Difference of weights ([4]; 25 mg/kg) was -2.3 g and the BUN value ([4]; 50 mg/kg) was 17.8 mg/dL. For the same compound, the Difference of weights ([4]; 50 mg/kg) was -5.4 g, the T/C ([2]; dose 12.5 mg/kg) was greater than 304% and the “Number of survived mice (on 30th day)” value ([2]; dose 12.5 mg/kg) was 3/6. The T/C ([2]; dose 25 mg/kg) was 375%, the “Number of survived mice (on 30th day)” value ([2]; dose 25 mg/kg) was 6/6 and the T/C ([2]; dose 50 mg/kg) was 273%. The “Number of survived mice (on 30th day)” value ([2]; dose 50 mg/kg) was 0/6 and the “IC50 L1210/CDDP” value [3] was 0.10 µg/mL.

Compound `N.N.[Cl][Pt][Cl]` [CDDP, cis-dichlorodiamine platinum (II)] has a Difference of weights ([1]; dose 18 mg/kg on days 1, 5, 9) of -4.8 g, a BUN value ([1]; dose 18 mg/kg on days 1, 5, 9) of 83.7 mg/dL and a Difference of weights ([1]; dose 25 mg/kg on days 1, 5, 9) of -8.9 g. For the same compound, the BUN value ([1]; dose 25 mg/kg on days 1, 5, 9) was 112.3 ± 16.6 mg/dL, the T/C ([2]; dose 6.25 mg/kg) was 227% and the “Number of survived mice (on 30th day)” value ([2]; dose 6.25 mg/kg) was 0/6. For the same compound, the T/C ([2]; dose 12.5 mg/kg) was 282%, the “Number of survived mice (on 30th day)” value ([2]; dose 12.5 mg/kg) was 1/6 and the T/C ([2]; dose 25 mg/kg) was 367%. For the same compound, the “Number of survived mice (on 30th day)” value ([2]; dose 25 mg/kg) was 4/6 and the “IC50 L1210/CDDP” value [3] was 0.50 µg/mL.
